Measured values as given in patent publication US9314510B2, “Human laminin α2 chain LG3 domain and active peptides promoting cell adhesion, spreading, migration, and neurite outgrowth” (SNU R&DB Foundation, priority 2011, dated 2016).
Ends that are not written are not given here.

Key:
PC12 cells [1] = assay: Cell migration assay (transwell migration chambers); format: cell-based, rat; settings: transwell filters coated with laminin 5 μg/mL, rLG proteins 25 μg/mL or peptides 62.5 μg/mL, 24 h
Method: Cell migration assays were performed using transwell migration chambers of 8 μm in pore size (Corning Inc., NY) as described in a paper published previously by the present inventors (Kim, J. M., Min, S. K., Kim, H., Kang, H. K., Jung, S. Y., Lee, S. H., Choi, Y., Roh, S., Jeong, D., and Min, B. M. (2007) Int. J. Mol. Med.).
The lower sides of transwell filters were coated with laminin (5 μg/mL) or rLG proteins (25 μg/mL) for 12 h at 4° C. The lower sides of transwell filters were blocked with 1% BSA in PBS for 1 h at 37° C. Cells were suspended at a density of 4×10^5 cells/mL in RPMI 1640 medium containing 0.5% FBS and 0.1% BSA. 100 μL of this suspension was seeded in the upper chamber of the transwell filter. Cells were allowed to migrate for 24 h at 37° C. and then fixed with 10% formalin for 15 min and stained with 0.5% crystal violet. Non-migrated cells in the upper chamber of transwell filters were removed with a cotton swab, viewed under a light microscope, and counted.
Specifically, to observe cell adhesion, spreading, migration, and neurite outgrowth promotion, the methods described in Experimental examples <2-1> to <2-3> were used and PC12 cells were cultured on plates coated with laminin (5 μg/mL), rLG3 (25 μg/mL), and rLG3-M1 (25 μg/mL) and observed. To observe cell adhesion, PC12 cells were incubated on the coated plates for 1 h and to observe cell spreading, PC12 cells were incubated on the coated plates for 3 h. To observe cell migration, PC12 cells were incubated on the coated plates for […].

integrin β1 = molecular target: T1, integrin β1 (Rattus norvegicus, UniProt P49134); assay: Immunoprecipitation of PKCα, PKCδ and FAK with His6-rLG3 or integrin β1; format: cell-based; settings: PC12 cells on coated dishes, 30 min
T1 construct: whether PKCα and -δ exist as associated complexes in PC12 cells seeded on laminin-, rLG3-, and Ln2-LG3-P2-coated dishes; endogenous in cells; host or cells: PC12 cells
T1 sequence (P49134 21-799): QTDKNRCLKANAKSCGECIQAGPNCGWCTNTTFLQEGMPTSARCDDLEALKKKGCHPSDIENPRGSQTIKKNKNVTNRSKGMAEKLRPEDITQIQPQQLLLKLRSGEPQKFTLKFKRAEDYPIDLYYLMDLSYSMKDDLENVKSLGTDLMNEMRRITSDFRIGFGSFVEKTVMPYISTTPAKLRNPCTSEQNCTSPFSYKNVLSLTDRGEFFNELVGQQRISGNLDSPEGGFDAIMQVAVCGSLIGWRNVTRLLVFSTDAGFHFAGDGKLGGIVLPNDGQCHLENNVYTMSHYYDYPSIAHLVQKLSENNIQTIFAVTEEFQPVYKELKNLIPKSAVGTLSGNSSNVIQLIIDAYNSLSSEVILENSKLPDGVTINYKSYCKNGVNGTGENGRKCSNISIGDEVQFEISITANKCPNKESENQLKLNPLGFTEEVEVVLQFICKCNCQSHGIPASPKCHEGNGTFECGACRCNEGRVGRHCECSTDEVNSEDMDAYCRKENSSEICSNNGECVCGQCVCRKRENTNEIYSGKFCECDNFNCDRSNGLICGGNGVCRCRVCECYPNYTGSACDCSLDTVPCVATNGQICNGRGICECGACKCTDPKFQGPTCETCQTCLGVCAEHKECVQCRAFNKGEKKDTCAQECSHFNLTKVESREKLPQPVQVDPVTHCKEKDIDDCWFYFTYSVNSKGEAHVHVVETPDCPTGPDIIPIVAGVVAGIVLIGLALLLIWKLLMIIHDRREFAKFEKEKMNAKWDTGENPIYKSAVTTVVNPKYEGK
Method: Specifically, for immunoprecipitation, PC12 cells were starved for 12 h with RPMI 1640 medium containing 0.1% FBS. Cells were detached and resuspended in serum-free medium with 0.1% BSA. PC12 cells (4×10^6 cells/100-mm dish) were seeded on laminin (5 μg/mL)-, rLG3 (25 μg/mL)-, or Ln2-LG3-P2 (25 μg/well)-coated dishes and allowed to attach for 30 min at 37° C. After incubation, cells were washed with ice-cold PBS, lysed with RIPA buffer containing a protease inhibitor cocktail. The lysates were centrifuged and the supernatants were preincubated with 50 μL of immobilized protein G beads (Upstate Biotechnology Inc.) for 1 h at 4° C. to remove nonspecific binding. The supernatants were incubated with anti-His6 (Roche, Mannheim, Germany), anti-integrin (Santa Cruz Biotechnology), or anti-PKCδ (Santa Cruz Biotechnology) antibodies for 2 h at 4° C. The immunocomplexes were precipitated with immobilized protein G beads for 12 h at 4° C. After centrifugation, beads carrying the immune complexes were washed four times with RIPA buffer. Immunoprecipitates were resuspended in SDS sample buffer, boiled for 5 min, and analysed by Western blotting.

Schwann cells = assay: Schwann cell adhesion on coated plates; format: cell-based, human; settings: plates coated with 62.5 μg/mL peptide, 1 h, serum-free
[2] = test system: normal human epidermal keratinocytes (NHEK); assay: Cell adhesion to Ln2-LG3-P2-coated plates, NHEK; format: cell-based; settings: NHEK at passage 2, 62.5 μg/mL, 1 h
Method: Normal human epidermal keratinocytes (NHEK) isolated from epidermal tissue of normal human epidermal skin were cultured in keratinocyte growth medium (KGM, manufactured by Clonetics, San Diego, Calif.). Cells at passage 2 were used for the following experiments.

[3] = test system: normal human oral keratinocytes (NHOK); assay: Cell adhesion to Ln2-LG3-P2-coated plates, NHOK; format: cell-based; settings: NHOK at passage 2, 62.5 μg/mL, 1 h
Method: Normal human oral keratinocytes (NHOK) isolated from epidermal tissue of human gingiva were cultured in KGM (by Clonetics, San Diego, Calif.). Cells at passage 2 were used for the following experiments.

[4] = test system: normal human dermal fibroblasts (NHDF); assay: Cell adhesion to Ln2-LG3-P2-coated plates, NHDF; format: cell-based; settings: NHDF at passage 4, 62.5 μg/mL, 1 h
Method: Normal human dermal fibroblasts (NHDF) isolated from hypodermal tissue of normal human skin were cultured in DMEM containing antibiotics and 10% FBS. Cells at passage 4 were used for the following experiments.

CV-1 cells = assay: Cell adhesion to Ln2-LG3-P2-coated plates, CV-1; format: cell-based, African green monkey; settings: 62.5 μg/mL, 1 h
From the text: The normal African green monkey kidney fibroblast cell line CV-1 was purchased from the American Type Culture Collection (Manassas, Va.) and cultured in DMEM containing 10% FBS.

PC12 cells [5] = assay: Cell adhesion inhibition assay: peptide pretreatment, adhesion to rLG3-coated plates; format: cell-based, rat; settings: rLG3 25 μg/mL, 1 h
Method: Specifically, PC12 cells were pretreated with the Ln2-LG3-P2 peptide in concentrations of 0, 0.2, 0.4, 0.6, 0.8, 1.0, or 1.2 μg/mL for 10 min at room temperature and then cultured on plates coated with rLG3 (25 μg/mL) for 1 h in serum-free medium.
(§1) PC12 cells were pretreated with 500 μg/mL of Ln2-LG3-P1, Ln2-LG3-P2, Ln2-LG3-P3, Ln2-LG3-P4, Ln2-LG3-P5 and SP (scramble peptide) (SEQ ID NO:20) for 10 min at room temperature and then cultured on plates coated with rLG3 (25 μg/mL) in serum-free medium. To observe cell adhesion, PC12 cells were incubated on the coated plates for 1 h and to observe cell spreading, PC12 cells were incubated on the coated plates for 3 h. To observe cell migration, cells were seed into the upper chamber of transwell filters coated with rLG3 (25 μg/mL) and cultured for 24 h. Cell migration was quantified by counting the number of cells that had migrated through the filter.
Specifically, PC12 cells were pretreated with Ln2-LG2-P2 (500 μg/mL) and Ln2-LG3-P2A (500 μg/mL) and then, cell adhesion was observed on plates coated with rLG3 (25 μg/mL).

PC12 cells [6] = assay: Inhibition of cell migration to rLG3 by peptide pretreatment; format: cell-based, rat; settings: PC12 cells pretreated with 500 μg/mL peptide, transwell coated with rLG3 25 μg/mL, 24 h
Method: as §1

PC12 cells [7] = assay: Inhibition of cell adhesion to laminin by rLG3 / rLG3-M1 pretreatment; format: cell-based, rat; settings: laminin 5 μg/mL
Method: In addition, PC12 cells were pretreated with rLG3 (250 or 500 μg/mL) or vehicle (phosphate buffer, pH 3.0) for 30 min and then seeded on plates coated with laminin (5 μg/mL) for 30 min in serum-free medium and cell adhesion was observed.

Row | proteins in integrin β1 immunoprecipitates (integrin β1) | proteins in anti-His6 immunoprecipitates (integrin β1) | Molecule | cell migration (PC12 cells [1]) | Schwann cell adhesion (Schwann cells) | cell adhesion activity [2] | cell adhesion activity [3] | cell adhesion activity [4] | cell adhesion activity (CV-1 cells) | cell adhesion to rLG3 after peptide pretreatment (PC12 cells [5]; PC12 cells pretreated with 0 to 1.2 μg/mL peptide for 10 min) | inhibition of cell adhesion to rLG3 protein (PC12 cells [5]; PC12 cells pretreated with 500 μg/mL peptide) | inhibition of cell migration to rLG3 protein (PC12 cells [6]) | inhibition of cell adhesion to laminin (PC12 cells [7]; PC12 cells pretreated with 250 μg/mL for 30 min) | inhibition of cell adhesion to laminin (PC12 cells [7]; PC12 cells pretreated with 500 μg/mL for 30 min)
1 | PKCα, PKCδ, and FAK were also observed | – | laminin [reference compound] | promoted cell migration | – | – | – | – | – | – | – | – | – | –
2 | PKCα, PKCδ, and FAK were also observed | – | RNIPPFEGCIWN (RNIPPFEGCIWN-NH2; listed as Homo sapiens) [Ln2-LG3-P2, 12-mer peptide, position 2675 to 2686 in human laminin α2 chain] | comparable to that of rLG3 | strong effect | strong cell adhesion activity | strong cell adhesion activity | strong cell adhesion activity | strong cell adhesion activity | decreased in a dose-dependent manner | approximately 40% | inhibited cell spreading and migration | – | –
3 | PKCα, PKCδ, and FAK were also observed | PKCα, PKCδ, and FAK were observed | rLG3: recombinant His6-tagged human laminin α2 chain LG3 domain, amino acids 2537 to 2745 (protein, listed as Homo sapiens, His6 tag) VELSPVPIDVGTEINLSFSTKNESGIILLGSGGTPAPPRRKRRQTGQAYYVILLNRGRLEVHLSTGARTMRKIVIRPEPNLFHDGREHSVHVERTRGIFTVQVDENRRYMQNLTVEQPIEVKKLFVGGAPPEFQPSPLRNIPPFEGCIWNLVINSVPMDFARPVSFKNADIGRCAHQKLREDEDGAAPAEIVIQPEPVPTPAFPTPTPV | induced cell migration significantly | – | – | – | – | – | – | – | – | 23% | 48%
